Source: ChEMBL document CHEMBL3525983, “Pharmacokinetics, metabolism, and disposition of rivoglitazone, a novel peroxisome proliferator-activated receptor γ agonist, in rats and monkeys” (Drug Metab Dispos, 2011)

Columns and labels:
[1] = AUC (0 to t) in monkey at 0.986 mg/kg, iv administered via tail vein by LC-MS/MS analysis; assay type: ADME, organism-based, Macaca mulatta; set-up: dose 0.986 mg/kg, dosed compound name [14C]Rivoglitazone, route intravenous; conditions: rhesus monkey, plasma
[2] = Volume of distribution at steady state in F344/DuCrlCrlj rat at 0.5 mg/kg, iv administered via tail vein by LC-MS/MS analysis; assay type: ADME, organism-based; set-up: dose 0.5 mg/kg, dosed compound name [14C]Rivoglitazone, route intravenous; conditions: in vivo, read-out: Vdss
[3] = Drug excretion in F344/DuCrlCrlj rat urine/feces assessed as unchanged compound at 1 mg/kg, po administered via gavage measured during 0 to 48 hrs by radio-HPLC analysis; assay type: ADME, organism-based; set-up: dose 1 mg/kg, dosed compound name [14C]Rivoglitazone, route oral; conditions: urine and feces, read-out: Compound recovery
[4] = Tmax in F344/DuCrlCrlj rat at 1 mg/kg, po administered via gavage by LC-MS/MS analysis; assay type: ADME, organism-based; set-up: dose 1 mg/kg, dosed compound name [14C]Rivoglitazone, route oral; conditions: in vivo
[5] = Terminal elimination half life in monkey at 0.0986 mg/kg, iv administered via tail vein by LC-MS/MS analysis; assay type: ADME, organism-based, Macaca mulatta; set-up: dose 0.0986 mg/kg, dosed compound name [14C]Rivoglitazone, route intravenous; conditions: rhesus monkey, in vivo, read-out: beta t1/2 (converted)
[6] = AUC (0 to infinity) in F344/DuCrlCrlj rat at 0.5 mg/kg, po administered via gavage by LC-MS/MS analysis; assay type: ADME, organism-based; set-up: time infinity, dose 0.5 mg/kg, dosed compound name [14C]Rivoglitazone, route oral; conditions: plasma
Rattus norvegicus = experiment: Drug uptake in F344/DuCrlCrlj rat plasma assessed as unchanged compound at 1 to 5 mg/kg, po administered as single dose via gavage by LC-MS/MS analysis; assay type: ADME, organism-based; set-up: dose 1-5 mg/kg, dosed compound name [14C]Rivoglitazone, route oral; conditions: in vivo
[7] = Tmax in monkey at 0.0986 mg/kg, po administered via gavage by LC-MS/MS analysis; assay type: ADME, organism-based, Macaca mulatta; set-up: dose 0.0986 mg/kg, dosed compound name [14C]Rivoglitazone, route oral; conditions: rhesus monkey, in vivo
[8] = AUC (0 to t) in F344/DuCrlCrlj rat at 0.1 mg/kg, po administered via gavage by LC-MS/MS analysis; assay type: ADME, organism-based; set-up: dose 0.1 mg/kg, dosed compound name [14C]Rivoglitazone, route oral; conditions: plasma
[9] = Terminal elimination half life in monkey at 0.0986 mg/kg, po administered via gavage by LC-MS/MS analysis; assay type: ADME, organism-based, Macaca mulatta; set-up: dose 0.0986 mg/kg, dosed compound name [14C]Rivoglitazone, route oral; conditions: rhesus monkey, in vivo, read-out: beta t1/2 (converted)
[10] = Terminal elimination half life in F344/DuCrlCrlj rat at 0.1 mg/kg, iv administered via tail vein by LC-MS/MS analysis; assay type: ADME, organism-based; set-up: dose 0.1 mg/kg, dosed compound name [14C]Rivoglitazone, route intravenous; conditions: in vivo, read-out: beta t1/2 (converted)
[11] = Tmax in F344/DuCrlCrlj rat at 0.5 mg/kg, po administered via gavage by LC-MS/MS analysis; assay type: ADME, organism-based; set-up: dose 0.5 mg/kg, dosed compound name [14C]Rivoglitazone, route oral; conditions: in vivo
[12] = Terminal elimination half life in monkey at 0.493 mg/kg, iv administered via tail vein by LC-MS/MS analysis; assay type: ADME, organism-based, Macaca mulatta; set-up: dose 0.493 mg/kg, dosed compound name [14C]Rivoglitazone, route intravenous; conditions: rhesus monkey, in vivo, read-out: beta t1/2 (converted)
[13] = Volume of distribution at steady state in monkey at 0.986 mg/kg, iv administered via tail vein by LC-MS/MS analysis; assay type: ADME, organism-based, Macaca mulatta; set-up: dose 0.986 mg/kg, dosed compound name [14C]Rivoglitazone, route intravenous; conditions: rhesus monkey, in vivo, read-out: Vdss
[14] = AUC (0 to infinity) in monkey at 0.0986 mg/kg, iv administered via tail vein by LC-MS/MS analysis; assay type: ADME, organism-based, Macaca mulatta; set-up: time infinity, dose 0.0986 mg/kg, dosed compound name [14C]Rivoglitazone, route intravenous; conditions: rhesus monkey, plasma
[15] = Drug excretion in monkey feces assessed as unchanged compound at 1 mg/kg, po administered via gavage measured during 0 to 72 hrs by radio-HPLC analysis; assay type: ADME, organism-based, Macaca mulatta; set-up: dose 1 mg/kg, dosed compound name [14C]Rivoglitazone, route oral; conditions: rhesus monkey, read-out: Compound recovery
[16] = Apparent total clearance in F344/DuCrlCrlj rat at 0.1 mg/kg, po administered via gavage by LC-MS/MS analysis; assay type: ADME, organism-based; set-up: dose 0.1 mg/kg, dosed compound name [14C]Rivoglitazone, route oral; conditions: in vivo, read-out: CLt/F
[17] = AUC (0 to t) in F344/DuCrlCrlj rat at 1 mg/kg, po administered via gavage by LC-MS/MS analysis; assay type: ADME, organism-based; set-up: dose 1 mg/kg, dosed compound name [14C]Rivoglitazone, route oral; conditions: plasma
[18] = Total clearance in monkey at 0.493 mg/kg, iv administered via tail vein by LC-MS/MS analysis; assay type: ADME, organism-based, Macaca mulatta; set-up: dose 0.493 mg/kg, dosed compound name [14C]Rivoglitazone, route intravenous; conditions: rhesus monkey, in vivo
[19] = Cmax in F344/DuCrlCrlj rat at 0.1 mg/kg, po administered via gavage by LC-MS/MS analysis; assay type: ADME, organism-based; set-up: dose 0.1 mg/kg, dosed compound name [14C]Rivoglitazone, route oral; conditions: in vivo
Plasma = experiment: Drug metabolism in F344/DuCrlCrlj rat plasma assessed as 2-((4-((2,4-dioxothiazolidin-5-yl)methyl)phenoxy)methyl)-1-methyl-1H-benzo[d]imidazol-6-yl hydrogen sulfate formation at 1 to 5 mg/kg, po administered as single dose via gavage by LC-MS/MS analysis; assay type: ADME, organism-based; set-up: dose 1-5 mg/kg, dosed compound name [14C]Rivoglitazone, route oral; conditions: in vivo
[20] = AUC (0 to t) in monkey at 0.493 mg/kg, iv administered via tail vein by LC-MS/MS analysis; assay type: ADME, organism-based, Macaca mulatta; set-up: dose 0.493 mg/kg, dosed compound name [14C]Rivoglitazone, route intravenous; conditions: rhesus monkey, plasma
[21] = Terminal elimination half life in F344/DuCrlCrlj rat at 0.5 mg/kg, po administered via gavage by LC-MS/MS analysis; assay type: ADME, organism-based; set-up: dose 0.5 mg/kg, dosed compound name [14C]Rivoglitazone, route oral; conditions: in vivo, read-out: beta t1/2 (converted)
[22] = Oral bioavailability in monkey at 0.0986 mg/kg administered via gavage by LC-MS/MS analysis; assay type: ADME, organism-based, Macaca mulatta; set-up: dosed compound name [14C]Rivoglitazone; conditions: rhesus monkey, in vivo
[23] = AUC (0 to t) in monkey at 0.0986 mg/kg, iv administered via tail vein by LC-MS/MS analysis; assay type: ADME, organism-based, Macaca mulatta; set-up: dose 0.0986 mg/kg, dosed compound name [14C]Rivoglitazone, route intravenous; conditions: rhesus monkey, plasma
[24] = AUC (0 to t) in F344/DuCrlCrlj rat at 0.5 mg/kg, iv administered via tail vein by LC-MS/MS analysis; assay type: ADME, organism-based; set-up: dose 0.5 mg/kg, dosed compound name [14C]Rivoglitazone, route intravenous; conditions: plasma
[25] = AUC (0 to infinity) in F344/DuCrlCrlj rat at 1 mg/kg, po administered via gavage by LC-MS/MS analysis; assay type: ADME, organism-based; set-up: time infinity, dose 1 mg/kg, dosed compound name [14C]Rivoglitazone, route oral; conditions: plasma
[26] = Drug excretion in bile duct-cannulated rat feces assessed as unchanged compound level administered through oral dose by radio-HPLC analysis; assay type: ADME; set-up: dosed compound name [14C]Rivoglitazone; conditions: read-out: Compound recovery
[27] = Cmax in F344/DuCrlCrlj rat at 0.5 mg/kg, po administered via gavage by LC-MS/MS analysis; assay type: ADME, organism-based; set-up: dose 0.5 mg/kg, dosed compound name [14C]Rivoglitazone, route oral; conditions: in vivo
[28] = Apparent total clearance in F344/DuCrlCrlj rat at 0.5 mg/kg, po administered via gavage by LC-MS/MS analysis; assay type: ADME, organism-based; set-up: dose 0.5 mg/kg, dosed compound name [14C]Rivoglitazone, route oral; conditions: in vivo, read-out: CLt/F
[29] = Total clearance in monkey at 0.986 mg/kg, iv administered via tail vein by LC-MS/MS analysis; assay type: ADME, organism-based, Macaca mulatta; set-up: dose 0.986 mg/kg, dosed compound name [14C]Rivoglitazone, route intravenous; conditions: rhesus monkey, in vivo
[30] = Tmax in monkey at 0.986 mg/kg, po administered via gavage by LC-MS/MS analysis; assay type: ADME, organism-based, Macaca mulatta; set-up: dose 0.986 mg/kg, dosed compound name [14C]Rivoglitazone, route oral; conditions: rhesus monkey, in vivo
[31] = AUC (0 to t) in monkey at 0.0986 mg/kg, po administered via gavage by LC-MS/MS analysis; assay type: ADME, organism-based, Macaca mulatta; set-up: dose 0.0986 mg/kg, dosed compound name [14C]Rivoglitazone, route oral; conditions: rhesus monkey, plasma
[32] = Total clearance in F344/DuCrlCrlj rat at 0.5 mg/kg, iv administered via tail vein by LC-MS/MS analysis; assay type: ADME, organism-based; set-up: dose 0.5 mg/kg, dosed compound name [14C]Rivoglitazone, route intravenous; conditions: in vivo

COc1ccc2nc(COc3ccc(CC4SC(=O)NC4=O)cc3)n(C)c2c1.Cl (racemic)
AUC(0-t) [1]: 51700 ng·h/mL
Vd [2]: 0.131 L/kg
dose excreted [3]: 23.7%
Tmax [4]: 2.25 h
half-life [5]: 6.38 h
AUC(0-inf) [6]: 21800 ng·h/mL
Compound recovery (Rattus norvegicus): metabolite_detected
Tmax [7]: 3 h
AUC(0-t) [8]: 4340 ng·h/mL
half-life [9]: 8.33 h
half-life [10]: 4.55 h
Tmax [11]: 1.13 h
half-life [12]: 6.21 h
Vd [13]: 0.138 L/kg
AUC(0-inf) [14]: 5000 ng·h/mL
dose excreted [15]: 23.5%
CL/F [16]: 0.354 mL/min/kg
AUC(0-t) [17]: 48500 ng·h/mL
clearance [18]: 0.371 mL/min/kg
Cmax [19]: 409 ng/mL
Compound recovery (Plasma): metabolite_detected
AUC(0-t) [20]: 21700 ng·h/mL
half-life [21]: 4.98 h
bioavailability [22]: 106%
AUC(0-t) [23]: 3800 ng·h/mL
AUC(0-t) [24]: 22300 ng·h/mL
AUC(0-inf) [25]: 49800 ng·h/mL
dose excreted [26]: 12.6%
Cmax [27]: 2090 ng/mL
CL/F [28]: 0.352 mL/min/kg
clearance [29]: 0.31 mL/min/kg
Tmax [30]: 3.5 h
AUC(0-t) [31]: 3440 ng·h/mL
clearance [32]: 0.333 mL/min/kg
